Here are results for five compounds from patent US20190364943A1, “NOVEL COMPOSITIONS FOR FLAVOR ENHANCEMENT” (International Flavors & Fragrances Inc., priority 2016, published 2019).

One data set deals with sweet taste. Briefly: Effect on sweet taste, intensity scale 0 to 10 (panelists). It counts as in vivo, human. To be noted: 20 ppm in sucrose in water (2.5% by weight); scale 0 to 10, control anchored as 5. On the procedure: (§1) The effect of guanine and its nucleobase analog adenine on other basic tastes was examined and compared. The control solutions were prepared as follows:
(i) A sweet control solution of sucrose in water (2.5% by weight);
(§2) Respective test solutions of adenine and guanine were prepared in different control solutions (2 or 20 ppm).
(§3) The taste perception of each sample was evaluated by a group of panelists using an intensity scale of 0 to 10, where 0=none, 5=moderate, 10=extremely strong. Panelists were instructed to anchor the intensity of the control solutions as 5 on the scale. The intensity scores were analyzed using one-way ANOVA with Post Hoc LSD multiple comparisons. Average intensity scores are reported in the following:
(§4) The effect of guanosine and its corresponding nucleotide, guanosine 5′-monophosphate (GMP), on additional basic tastes was examined and compared. The control solutions of sweet, bitter, salty and umami tastes were prepared as above in Example II. Respective test solutions of guanosine and GMP were prepared in different control solutions (2 or 20 ppm).

The test system of the next data set is bitter taste. Briefly: Effect on bitter taste, intensity scale 0 to 10 (panelists). It counts as in vivo, human. The following applies: 2 ppm in caffeine in water (0.05% by weight); scale 0 to 10, control anchored as 5. On the procedure:
as §1
(ii) A bitter control solution of caffeine in water (0.05% by weight);
as §2, §3, §4

Data set [1] relates to sour taste. Briefly: Sour taste intensity score in citric acid base solution, scale 0 to 10 (panelists). In kind it is in vivo, human. The following applies: scale 0 to 10, base anchored as 5. On the procedure:
The effect of adenine and guanine on sour taste was examined and compared. Respective test sample solutions of adenine and guanine were prepared in the base solution (each of 5 and 100 ppb, respectively).
The sour taste perception of each sample was evaluated by a group of panelists using an intensity scale of 0 to 10, where 0=none, 5=moderate, 10=extremely strong. Panelists were instructed to anchor the intensity of the base solution as 5 on the scale. The intensity scores were analyzed using one-way ANOVA with Post Hoc LSD multiple comparisons. Average intensity scores are reported in the following: […]

In the next data set the test system is umami taste. Briefly: Effect on umami taste, intensity scale 0 to 10 (panelists). It counts as in vivo, human. The following applies: 20 ppm in MSG in water (0.05% by weight); scale 0 to 10, control anchored as 5. On the procedure: as §1
(iv) An umami control solution of monosodium glutamate (MSG) in water (0.05% by weight).
as §2, §3, §4

The test system of a further data set is salty taste. Description: Effect on salty taste, intensity scale 0 to 10 (panelists). The following applies: 20 ppm in sodium chloride in water (0.3% by weight); scale 0 to 10, control anchored as 5. In kind it is in vivo, human. On the procedure: as §1
(iii) A salty control solution of sodium chloride in water (0.3% by weight); and
as §2, §3, §4

Data set [2] relates to sour taste. Description: Paired comparison of sour taste against control solution of citric acid 450 ppm (sensory panel). In kind it is in vivo, human. On the procedure:
A control sample solution of citric acid in water (450 ppm) and a test sample solution of guanosine in the base solution (1.25 ppm) were prepared. Sample pairs of (i) a base solution and a control sample solution; and (ii) a test sample solution and a control sample solution were each presented in a blind and pseudorandom order to a sensory panel. The enhancement of sour taste was recorded based on the percentage of the panelists who ranked the sample sourer.

Data set [3] is described as follows: pH level of sample solutions. It counts as physicochemical.
Data set [4] is described as follows: Taste description of the compound alone in water. In kind it is in vivo, human. To be noted: 1 ppm.
Data set [5] has as its system sour taste. Briefly: Paired comparison of sour taste, GMP solution vs guanosine solution (sensory panel). It counts as in vivo, human. On the procedure:
The effect of guanosine and GMP on sour taste was examined and compared. Respective test sample solutions of GMP and guanosine were prepared in the base solution (each of 5 and 100 ppb, respectively).
Sample pairs (a GMP solution and a guanosine solution) were presented in a blind and pseudorandom order to a sensory panel. The enhancement of sour taste was recorded based on the percentage of the panelists who ranked the sample sourer. Binomial statistical analysis was used to compare the enhancement of sour taste for each sample pair. Significance was at 95% Confidence Interval (p<0.05).

The test system of data set [6] is sour taste. Briefly: Paired comparison of sour taste, test sample solution vs citric acid base solution (sensory panel). It counts as in vivo, human. The following applies: for Sour taste enhancement, in words (table footnote): 5 and 100 ppb in base solution (citric acid 400 ppm); for Result (sour taste vs base solution): paired comparison. On the procedure: The enhancement of sour taste by guanine and guanosine was subsequently examined. A base solution of citric acid (HOC(COOH)(CH2COOH)2) in water (400 ppm) was prepared and used in the following examples of the present invention. Test sample solutions of guanine and guanosine were prepared in the base solution (each of 5 and 100 ppb, respectively).
Sample pairs (a base solution and a test sample solution) were presented in a blind and pseudorandom order to a sensory panel. The enhancement of sour taste was recorded based on the percentage of the panelists who ranked the sample sourer. Binomial statistical analysis was used to compare the enhancement of sour taste for each sample pair. Significance was at 95% Confidence Interval (p<0.05). The test results are as follows:
The effect of botanical extract such as Chrysanthemum parthenium extract on sour taste was examined. A test sample solution of the extract in the base solution (15 ppm) was prepared.
Sensory evaluation was conducted using the paired comparison method. A base solution and a test sample solution, unidentifiable by using 3-digit codes, were presented in a blind and pseudorandom order to a sensory panel. The enhancement of sour taste was recorded based on the percentage of the panelists who ranked the sample sourer. The data were analyzed using binomial statistical analysis.

Where [7] appears, read: 5 ppb in base solution (citric acid 400 ppm).
The mark [8] stands for this setting: 100 ppb in base solution (citric acid 400 ppm).
Setting [9] is: guanosine 1.25 ppm in base solution (citric acid 400 ppm).
The mark [10] stands for this setting: 5 ppb in base solution (citric acid in water, 400 ppm).
The mark [11] stands for this setting: 100 ppb in base solution (citric acid in water, 400 ppm).

Turning to `Nc1ncnc2nc[nH]c12` [Adenine, adenine, reference compound], the “Sweet, average intensity score” value in the data set on sweet taste worked out at 5.76. Further, in the data set on bitter taste, the “Bitter, average intensity score” value turned out to be 6.33. The “Intensity Score (sour taste)” value in the data set with sour taste [1] (setting [7]) is 5.14; in the data set on sour taste [1] (setting [8]), 5.73. Also, in the data set on umami taste, the “Umami, average intensity score” value turned out to be 5.02. In addition, the “Salty, average intensity score” value in the data set with salty taste is on record as 5.16.

With `O=C(O)CC(O)(CC(=O)O)C(=O)O` [citric acid, reference compound], the “Panelist Selection (%), ranked sourer” value with sour taste [2] (control (citric acid 450 ppm) vs base (citric acid 400 ppm)) is on record as 100%; with sour taste [2] (control (citric acid 450 ppm) vs test (citric acid 400 ppm + guanosine 1.25 ppm)) it was 0%. In data set [3] (control solution: citric acid in water, 450 ppm), the “pH Level” value worked out at 3.17.

Take `Nc1nc2c(ncn2[C@@H]2O[C@H](COP(=O)(O)O)[C@@H](O)[C@H]2O)c(=O)[nH]1` [GMP, guanosine 5′-monophosphate, reference compound]: the “Sweet, average intensity score” value with sweet taste turned out to be 5.42. For the same compound, the “Bitter, average intensity score” value in the data set on bitter taste is on record as 6.50. Also, the “Umami, average intensity score” value with umami taste is listed as 9.60. The “Salty, average intensity score” value in the data set on salty taste is recorded as 5.34.

`Nc1nc2c(ncn2[C@@H]2O[C@H](CO)[C@@H](O)[C@H]2O)c(=O)[nH]1` [Guanosine, guanosine]: in data set [4], the “Sour taste of the compound itself” value is given as “Neither guanine nor guanosine possessed sour taste”; the Taste description entry is “somewhat astringent, mouth-drying and slightly bitter”. Also, the “Sweet, average intensity score” value in the data set with sweet taste is given as 5.52. For the same compound, the “Bitter, average intensity score” value in the data set with bitter taste stood at 7.00. In the data set with sour taste [2] (setting [9]), the “Sour taste enhancement and pH, in words” value is reported as “enhanced sour taste without decreasing the pH level”; the “Sour taste enhancement compared with additional citric acid, in words” value is “greater than that was achieved by 50 ppm citric acid”. Also, the “Panelist Selection (%), ranked sourer” value in the data set with sour taste [2] (test (citric acid 400 ppm + guanosine 1.25 ppm) vs control (citric acid 450 ppm)) is 100%. The “Result (which solution of the pair tasted sourer)” value in the data set with sour taste [5] (5 ppb each in base solution (citric acid 400 ppm)) is given as “Guanosine solution tasted sourer”. In the data set on sour taste [5] (100 ppb each in base solution (citric acid 400 ppm)), the “Result (which solution of the pair tasted sourer)” value was “Guanosine solution tasted sourer”. For the same compound, the “Umami, average intensity score” value with umami taste is 4.98. For the same compound, the “Sour taste enhancement, in words (table footnote)” value in the data set on sour taste [6] was “*Guanine and guanosine provided intense and lasting sour taste enhancement”. The “Result (sour taste vs base solution)” value with sour taste [6] (setting [10]) is “Sourer than the base solution”. Besides, in the data set on sour taste [6] (setting [11]), the “Result (sour taste vs base solution)” value is given as “Sourer than the base solution”. The “Salty, average intensity score” value in the data set with salty taste worked out at 5.22. In data set [3] (test solution: citric acid 400 ppm + guanosine 1.25 ppm (base alone pH 3.19)), the “pH Level” value was found to be 3.20.

Regarding `Nc1nc2nc[nH]c2c(=O)[nH]1` [Guanine, guanine], the “Sour taste of the compound itself” value in data set [4] is reported as “Neither guanine nor guanosine possessed sour taste”. In data set [4], the Taste description entry was “somewhat astringent, mouth-drying and mouth-coating”. In addition, the “Sweet, average intensity score” value in the data set on sweet taste was determined as 4.80. In the data set on bitter taste, the “Bitter, average intensity score” value was 6.50. For the same compound, the “Intensity Score (sour taste)” value is 6.44 in the data set on sour taste [1] (setting [7]) and 7.08 with sour taste [1] (setting [8]). Further, in the data set on umami taste, the “Umami, average intensity score” value came to 4.82. Moreover, the “Sour taste enhancement, in words (table footnote)” value in the data set on sour taste [6] is “*Guanine and guanosine provided intense and lasting sour taste enhancement”. Further, the “Result (sour taste vs base solution)” value with sour taste [6] (setting [10]) and with sour taste [6] (setting [11]) was “Sourer than the base solution” in each case. The “Salty, average intensity score” value with salty taste was determined as 5.06.
